Measured values reported in patent publication US12352767B2, “Method of treating cognitive decline associated with neurological diseases based on a decrease in FLT4 expression or activity” (University of Virginia Patent Foundation, priority 2018, dated 2025).
Entries after “also recorded” stand apart in the source; their conditions may differ.

Columns and labels:
[1] = system: meningeal lymphatic vessels; assay: Meningeal whole-mount immunostaining (LYVE-1/CD31): lymphatic vessel area and diameter, blood vessel coverage
Method: Selective ablation of the meningeal lymphatic vessels was achieved by i.c.m. injection and transcranial photoconversion of Visudyne® (verteporfin for injection, Valeant Ophtalmics). Visudyne was reconstituted following manufacturer instructions and 5 μL was injected i.c.m. following the previously described procedure. […] Each spot was irradiated with a light dose of 50 J/cm^2 at an intensity of 600 mW/cm^2 for a total of 83 s. Controls were injected with the same volume of Visudyne (without the photoconversion step) or sterile saline plus photoconversion (vehicle/photoconversion). The scalp skin was then sutured, the mice were subcutaneously injected with ketoprofen (2 mg/Kg) and allowed to recover on a heating pad until fully awake.
A hydrogel of 1.4% hyaluronic acid and 3% methylcellulose alone (vehicle) or with 200 ng/mL of encapsulated human VEGF-C (PeproTech) or VEGF-C156S (R&D Systems) was prepared as described elsewhere^49. Briefly, lyophilized, sterile methylcellulose (4000 cP, Sigma-Aldrich) and sterile hyaluronic acid (1500-1800 kDa, Sigma-Aldrich) were sequentially dissolved in sterile 0.1 M phosphate buffered saline (PBS) at 4° C. overnight. Lyophilized VEGF-C or VEGF-C156S were resuspended as particulate at 2000 ng/mL in 0.5% sterile methylcellulose in PBS. The particulate solution, or vehicle 0.5% methylcellulose, was mixed into the hydrogel pre-solution at 1:10, and loaded into a syringe for gelation at 37° C. […] The hydrogels were prepared on the day of the experiment and kept warm inside the individual syringes until applied onto the mouse's skull. […] An incision was made in the scalp skin and the skull was thinned at the junction of all sinuses and above the transverse sinus. The shear-thinning properties of the polymers allowed the extrusion of 100 μL of each hydrogel solution from the syringe into the thinned skull surface. The scalp skin was then sutured on top of the solidified hydrogel, the mice were subcutaneously injected with ketoprofen (2 mg/Kg) and allowed to recover on a heating pad until fully awake.
Mice were given a lethal dose of anesthetics by intraperitoneal (i.p.) injection of Euthasol (10% v/v in saline). When needed, CSF was collected from the cisterna magna using a 0.5 mm diameter borosilicate glass pipette with internal filament and immediately stored at −80° C. Mice were then transcardially perfused with ice cold PBS with heparin (10 U/mL). Deep cervical lymph nodes were dissected and drop fixed in 4% paraformaldehyde (PFA) for 12 hours at 4° C. After stripping the skin and muscle from the bone the head was collected and drop fixed in 4% PFA. […] The brains were kept in 4% PFA for additional 24 hours (48 hours in total). […]

mice = assay: Novel location recognition test; assay type: in vivo; settings: Visudyne/photoconversion twice, adult mice
Method: Novel location recognition test was performed following a published protocol^52 with modifications. The experimental apparatus used in this study was the same square box made of opaque white plastic (35 cm×35 cm) used in the Open field test. The mice were first habituated to the apparatus for 15 min. Two different plastic objects (one red and the other blue and with different shapes) were then positioned in a defined spatial orientation, namely on each corner of the arena and 5 cm away from each adjacent arena wall. Mice were then placed in the arena (by a blinded experimenter), facing the wall farther away from the objects and allowed to explore the arena and objects for 10 min. Twenty-four hours later, the mice were placed in the same box with the same two objects, but one of them had switched location and was placed in a new quadrant, obliquely to the familiar object (novel location test). The time spent exploring the objects in the familiar and novel locations was also measured for 10 min. Exploration of an object was assumed when the mouse approached an object and touched it with its vibrissae, snout or forepaws and was measured using a video tracking software (TopScan, CleverSys, Inc.). The object location preference (% of time with object) was calculated as the exploration time of the objects in the familiar or in the novel location/total exploration time.

[2] = system: hippocampal transcriptome; assay: RNA-seq of whole hippocampus after meningeal lymphatic ablation (Table 2, Table 3); assay type: in vivo, mice
Method: After defrosting in ice, samples were mechanically dissociated in extraction buffer and RNA was isolated using the kit components according to the manufacturer's instructions (RNeasy mini kit, cat. no. 74106, Qiagen). The Illumina TruSeq Stranded Total RNA Library Prep Kit was used for cDNA library preparation from total RNA samples. Sample quality control was performed on an Agilent 4200 TapeStation Instrument, using the Agilent D1000 kit, and on the Qubit Fluorometer (Thermo Fisher Scientific). For RNA sequencing (RNA-seq), libraries were loaded on to a NextSeq 500 (Illumina) using an Illumina NextSeq High Output (150 cycle) cartridge (#FC-404-2002).
The raw sequencing reads (FASTQ files) were first chastity filtered, which removes any clusters that have a higher than expected intensity of the called base compared to other bases. The quality of the reads was then evaluated using FastQC^57, and after passing quality control (QC), the expression of the transcripts was quantified against the UCSC mm10 genome^58 using Salmon^59. These transcript abundances were then imported into R and summarized with tximport^60, and then DESeq2^61 was used to normalize the raw counts, perform exploratory analysis (e.g., principal component analysis), and to perform differential expression (DE) analysis. Before DE analysis of the meningeal LECs from adult vs old mice dataset, surrogate variable analysis^62 (SVA) was used to identify and adjust for latent sources of unwanted variation as implemented in the SVA package^63. The P-values from the DE analysis were corrected for multiple hypothesis testing with the Benjamini-Hochberg false discovery rate procedure (adj. P-value). Functional enrichment of DE genes, using gene sets from Gene Ontology (GO) and Kyoto Encyclopedia of Genes and Genomes (KEGG), was determined with Fisher's exact test as implemented in the clusterProfiler^64 Bioconductor package. Heatmaps of the DE genes and enriched gene sets were generated with the R package pheatmap^65. Normalized counts of selected transcripts were used to calculate the fold change relative to respective controls.

[3] = after meningeal lymphatic ablation (Visudyne/photoconversion) and MWM

verteporfin [Visudyne] was tested, and the “ablation of meningeal lymphatics (LYVE-1+ lymphatic vessels)” value ([1]; Visudyne 5 μL i.c.m. + transcranial photoconversion, adult mice) was “loss of meningeal vessel staining; also recorded: effective ablation of meningeal lymphatics”, the “duration of meningeal lymphatic ablation” value ([1]; Visudyne i.c.m. + transcranial photoconversion) was “at least 7 days” and the “NLR novel location task (time with object in novel location)” value (mice) was “No differences between the groups; also recorded: identical”. For the same substance, the NLR training performance (mice) was “identical”, the “number of genes down-regulated in the hippocampus” value [2, 3] was 2138 genes and the “number of genes up-regulated in the hippocampus” value [2, 3] was 1599 genes. The “hippocampal transcriptome (RNA-seq principal component analysis) without MWM” value ([2]; four weeks of meningeal lymphatic ablation, Visudyne/photoconversion vs vehicle/photoconversion) was “did not induce significant changes; also recorded: did not show a differential clustering” and the “hippocampal gene expression (RNA-seq) after MWM performance” value ([2]; prolonged meningeal lymphatic ablation, Visudyne/photoconversion vs vehicle/photoconversion) was “significant differences in hippocampal gene expression; also recorded: differential clustering”.
